The NIST ThermoML archive (doi:10.1016/j.jct.2017.12.017)
Where “and” joins values, the source holds several entries; their conditions need not be identical. Identical values can stand only once. ± gives the expanded uncertainty stated by the source.

Assay: mn = molality of the nth substance listed, in mol/kg
Conditions: 100 kPa, Liquid; for speed of sound: Frequency=3 MHz, Single path-length method; for mass density: Vibrating tube method

Nc1ccc(S(=O)(=O)Nc2nccs2)cc1 [N-(2-thiazolyl)sulfanilamide] + O
Conditions | mass density, 288.15 K | mass density, 293.15 K | mass density, 298.15 K | mass density, 303.15 K | mass density, 308.15 K | speed of sound, 288.15 K [m/s] | speed of sound, 293.15 K [m/s] | speed of sound, 298.15 K [m/s] | speed of sound, 303.15 K [m/s] | speed of sound, 308.15 K [m/s]
m1 = 0.001 | 999.21 ± 0.49 kg/m3 | 998.28 ± 0.49 kg/m3 | 997.13 ± 0.49 kg/m3 | 995.71 ± 0.49 kg/m3 | 994.08 ± 0.49 kg/m3 | 1466.6 ± 1.8 | 1482.9 ± 1.9 | 1497.1 ± 1.9 | 1509.6 ± 1.9 | 1520.2 ± 1.9
m1 = 0.005 | 999.71 ± 0.49 kg/m3 | 998.79 ± 0.49 kg/m3 | 997.61 ± 0.49 kg/m3 | 996.18 ± 0.49 kg/m3 | 994.54 ± 0.49 kg/m3 | 1467.2 ± 1.8 | 1483.5 ± 1.9 | 1497.7 ± 1.9 | 1510 ± 1.9 | 1520.6 ± 1.9
m1 = 0.01 | 1000.27 ± 0.49 kg/m3 and 1000.33 ± 0.49 kg/m3 | 999.36 ± 0.5 kg/m3 and 999.41 ± 0.49 kg/m3 | 998.19 ± 0.5 kg/m3 and 998.23 ± 0.49 kg/m3 | 996.81 ± 0.49 kg/m3 and 996.77 ± 0.49 kg/m3 | 995.18 ± 0.49 kg/m3 and 995.14 ± 0.49 kg/m3 | 1468.5 ± 1.9 | 1484.5 ± 1.9 | 1498.7 ± 1.9 | 1510.7 ± 1.9 | 1521.7 ± 1.9
